Results: patent US8450325B2, “Methods for reducing the recurrence of cardiac arrhythmia” (ChanRx Corp., priority 2002, dated 2013)
Entries after “also recorded” stand apart in the source; their conditions may differ.

Assays:
hKv1.5 channel = hKv1.5 channel (Homo sapiens, UniProt P22460); assay: voltage clamp current block, hKv1.5 channel in stably transfected mammalian cells; assay type: cell-based; details: 0.1 Hz, 6 bpm
hERG (IKr) channel = hERG (IKr) channel (Homo sapiens, UniProt Q12809); assay: in vitro
Text: (§1) Nonlinear least squares fits of the current ratio data yielded the best fit value for the IC50 concentration. A positive control was included for each channel tested in the study.

[1] = biological target: T1, native cardiac L-type calcium channel (gpCaCh, ICa,L) (Cavia porcellus, UniProt O35505); assay: voltage clamp current block, native cardiac L-type calcium channel in guinea pig cardiomyocytes; assay type: cell-based; details: 0.05 Hz, 3 beats per minute
T1 construct: native cardiac L-type calcium channel expressed in guinea pig cardiomyocytes; endogenous in cells; host or cells: guinea pig cardiomyocytes
T1 sequence (O35505 whole entry): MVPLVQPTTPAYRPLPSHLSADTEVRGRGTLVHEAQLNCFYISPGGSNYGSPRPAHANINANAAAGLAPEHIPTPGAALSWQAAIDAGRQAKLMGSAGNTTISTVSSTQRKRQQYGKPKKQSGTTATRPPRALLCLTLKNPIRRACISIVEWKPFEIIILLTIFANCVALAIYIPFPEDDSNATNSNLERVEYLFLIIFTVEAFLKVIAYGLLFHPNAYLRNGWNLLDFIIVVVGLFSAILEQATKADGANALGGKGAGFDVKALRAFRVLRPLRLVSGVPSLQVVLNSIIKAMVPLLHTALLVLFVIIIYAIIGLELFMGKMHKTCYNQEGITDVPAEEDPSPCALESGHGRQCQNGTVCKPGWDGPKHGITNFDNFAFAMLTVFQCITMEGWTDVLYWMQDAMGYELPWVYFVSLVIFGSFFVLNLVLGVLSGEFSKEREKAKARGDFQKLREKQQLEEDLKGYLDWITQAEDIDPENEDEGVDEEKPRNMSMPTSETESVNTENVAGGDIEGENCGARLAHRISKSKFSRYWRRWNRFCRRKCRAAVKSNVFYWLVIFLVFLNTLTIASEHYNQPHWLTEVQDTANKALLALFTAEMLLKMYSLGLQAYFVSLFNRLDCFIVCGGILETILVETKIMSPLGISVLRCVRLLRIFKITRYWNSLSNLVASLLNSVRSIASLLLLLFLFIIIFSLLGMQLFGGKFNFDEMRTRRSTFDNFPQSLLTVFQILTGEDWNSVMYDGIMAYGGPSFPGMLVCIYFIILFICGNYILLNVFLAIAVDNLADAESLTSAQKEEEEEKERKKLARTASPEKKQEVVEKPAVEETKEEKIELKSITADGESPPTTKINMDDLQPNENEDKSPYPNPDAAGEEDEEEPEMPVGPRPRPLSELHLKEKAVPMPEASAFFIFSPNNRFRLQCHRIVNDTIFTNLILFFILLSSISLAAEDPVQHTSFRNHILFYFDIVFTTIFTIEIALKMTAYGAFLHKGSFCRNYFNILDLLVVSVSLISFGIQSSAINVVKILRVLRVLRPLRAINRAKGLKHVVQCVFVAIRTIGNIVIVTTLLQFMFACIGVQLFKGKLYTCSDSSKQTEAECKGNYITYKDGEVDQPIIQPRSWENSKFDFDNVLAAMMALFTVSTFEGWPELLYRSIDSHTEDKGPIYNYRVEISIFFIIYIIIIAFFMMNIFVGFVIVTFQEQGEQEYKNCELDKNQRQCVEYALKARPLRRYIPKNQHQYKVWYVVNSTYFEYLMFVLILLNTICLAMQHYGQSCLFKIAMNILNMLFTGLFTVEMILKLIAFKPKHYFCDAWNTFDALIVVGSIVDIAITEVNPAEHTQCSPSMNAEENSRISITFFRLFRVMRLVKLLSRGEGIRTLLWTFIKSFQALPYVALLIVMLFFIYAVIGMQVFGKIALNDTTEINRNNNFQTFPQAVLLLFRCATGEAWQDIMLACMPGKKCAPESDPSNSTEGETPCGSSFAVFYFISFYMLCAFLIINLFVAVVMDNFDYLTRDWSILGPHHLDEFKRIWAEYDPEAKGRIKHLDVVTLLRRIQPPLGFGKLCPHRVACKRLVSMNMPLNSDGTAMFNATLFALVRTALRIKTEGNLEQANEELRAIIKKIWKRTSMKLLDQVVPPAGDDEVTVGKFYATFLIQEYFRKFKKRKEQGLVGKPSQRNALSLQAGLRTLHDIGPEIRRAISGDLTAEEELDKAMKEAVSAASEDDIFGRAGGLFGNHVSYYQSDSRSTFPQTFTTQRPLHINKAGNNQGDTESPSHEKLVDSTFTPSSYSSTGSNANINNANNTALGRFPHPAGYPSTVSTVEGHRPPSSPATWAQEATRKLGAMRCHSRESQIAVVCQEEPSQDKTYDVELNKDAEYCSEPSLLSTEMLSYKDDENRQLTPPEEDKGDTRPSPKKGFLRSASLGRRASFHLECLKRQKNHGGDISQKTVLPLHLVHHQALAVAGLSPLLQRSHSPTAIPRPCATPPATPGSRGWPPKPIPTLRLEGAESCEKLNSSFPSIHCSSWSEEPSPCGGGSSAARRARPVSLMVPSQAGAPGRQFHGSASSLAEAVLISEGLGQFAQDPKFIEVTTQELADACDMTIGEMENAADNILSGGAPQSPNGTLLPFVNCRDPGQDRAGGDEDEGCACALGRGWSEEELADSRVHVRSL

dog Purkinje fibers = assay: duration of the cardiac action potential in dog Purkinje fibers; set-up: dose or concentration left out as unconfirmed
[2] = 100 mg doses for 1 week; cited from earlier work
hHNa ion channel = hHNa ion channel (Homo sapiens, UniProt Q14524); assay: voltage clamp current block, hHNa channel in stably transfected mammalian cells; assay type: cell-based; details: 0.1 Hz, 6 bpm
hHNa ion channel, sequence (Q14524 whole entry): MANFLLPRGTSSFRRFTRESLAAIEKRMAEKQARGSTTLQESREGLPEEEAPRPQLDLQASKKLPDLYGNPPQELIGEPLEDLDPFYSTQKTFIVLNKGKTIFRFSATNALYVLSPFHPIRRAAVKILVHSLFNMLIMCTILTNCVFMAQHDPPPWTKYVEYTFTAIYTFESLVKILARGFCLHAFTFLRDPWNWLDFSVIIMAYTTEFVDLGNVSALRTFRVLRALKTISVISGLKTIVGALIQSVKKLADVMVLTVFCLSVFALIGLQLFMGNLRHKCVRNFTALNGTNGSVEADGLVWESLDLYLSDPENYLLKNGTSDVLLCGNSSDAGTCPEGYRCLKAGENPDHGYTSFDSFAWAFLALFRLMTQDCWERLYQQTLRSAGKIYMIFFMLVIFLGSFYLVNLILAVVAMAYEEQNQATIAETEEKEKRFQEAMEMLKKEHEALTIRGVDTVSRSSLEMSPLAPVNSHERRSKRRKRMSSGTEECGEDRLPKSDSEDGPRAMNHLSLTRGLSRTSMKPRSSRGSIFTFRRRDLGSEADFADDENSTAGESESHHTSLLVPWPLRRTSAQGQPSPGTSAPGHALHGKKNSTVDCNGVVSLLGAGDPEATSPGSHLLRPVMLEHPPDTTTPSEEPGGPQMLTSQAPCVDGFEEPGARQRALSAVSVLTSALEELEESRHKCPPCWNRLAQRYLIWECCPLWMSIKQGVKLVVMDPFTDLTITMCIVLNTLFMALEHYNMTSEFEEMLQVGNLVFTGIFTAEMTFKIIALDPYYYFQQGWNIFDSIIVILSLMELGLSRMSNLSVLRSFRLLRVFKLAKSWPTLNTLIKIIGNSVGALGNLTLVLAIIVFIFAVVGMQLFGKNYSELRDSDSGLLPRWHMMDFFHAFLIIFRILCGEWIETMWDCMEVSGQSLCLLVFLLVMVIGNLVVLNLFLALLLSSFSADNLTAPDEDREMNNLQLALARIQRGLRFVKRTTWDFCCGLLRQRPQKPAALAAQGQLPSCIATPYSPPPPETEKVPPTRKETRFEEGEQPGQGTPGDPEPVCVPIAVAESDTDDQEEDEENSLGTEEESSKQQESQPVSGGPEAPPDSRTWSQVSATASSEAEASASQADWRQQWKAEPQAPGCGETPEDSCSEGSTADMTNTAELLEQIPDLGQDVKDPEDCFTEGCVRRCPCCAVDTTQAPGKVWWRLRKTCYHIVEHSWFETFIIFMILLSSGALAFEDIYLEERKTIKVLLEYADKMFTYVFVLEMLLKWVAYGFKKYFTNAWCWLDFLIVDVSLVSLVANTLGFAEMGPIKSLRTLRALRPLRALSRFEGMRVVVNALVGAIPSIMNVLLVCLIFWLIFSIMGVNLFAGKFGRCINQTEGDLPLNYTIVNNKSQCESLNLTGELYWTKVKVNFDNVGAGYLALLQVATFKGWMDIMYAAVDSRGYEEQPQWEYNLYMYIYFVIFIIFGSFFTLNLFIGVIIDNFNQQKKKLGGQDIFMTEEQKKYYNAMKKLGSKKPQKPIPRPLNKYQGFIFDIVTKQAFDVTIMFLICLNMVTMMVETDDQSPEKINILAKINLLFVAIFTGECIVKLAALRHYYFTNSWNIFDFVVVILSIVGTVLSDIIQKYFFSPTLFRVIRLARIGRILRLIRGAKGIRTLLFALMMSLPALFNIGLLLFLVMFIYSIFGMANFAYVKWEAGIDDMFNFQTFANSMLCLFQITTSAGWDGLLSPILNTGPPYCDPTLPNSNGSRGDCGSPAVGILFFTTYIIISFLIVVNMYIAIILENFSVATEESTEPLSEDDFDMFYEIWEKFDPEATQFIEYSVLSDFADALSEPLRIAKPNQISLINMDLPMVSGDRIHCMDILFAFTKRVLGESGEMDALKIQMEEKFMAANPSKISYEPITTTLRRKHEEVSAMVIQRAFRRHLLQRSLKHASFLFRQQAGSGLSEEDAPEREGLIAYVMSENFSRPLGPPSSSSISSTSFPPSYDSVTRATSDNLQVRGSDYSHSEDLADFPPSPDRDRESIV
Text: as §1

rKv4.3 (Ito) channel = biological target: T2, rKv4.3 (Ito) channel (Rattus norvegicus, UniProt Q62897); assay: voltage clamp current block, rKv4.3 channel in stably transfected mammalian cells; assay type: cell-based; details: Ito (rKv4.3); 0.067 Hz, 4 bpm
T2 sequence (Q62897 1-655): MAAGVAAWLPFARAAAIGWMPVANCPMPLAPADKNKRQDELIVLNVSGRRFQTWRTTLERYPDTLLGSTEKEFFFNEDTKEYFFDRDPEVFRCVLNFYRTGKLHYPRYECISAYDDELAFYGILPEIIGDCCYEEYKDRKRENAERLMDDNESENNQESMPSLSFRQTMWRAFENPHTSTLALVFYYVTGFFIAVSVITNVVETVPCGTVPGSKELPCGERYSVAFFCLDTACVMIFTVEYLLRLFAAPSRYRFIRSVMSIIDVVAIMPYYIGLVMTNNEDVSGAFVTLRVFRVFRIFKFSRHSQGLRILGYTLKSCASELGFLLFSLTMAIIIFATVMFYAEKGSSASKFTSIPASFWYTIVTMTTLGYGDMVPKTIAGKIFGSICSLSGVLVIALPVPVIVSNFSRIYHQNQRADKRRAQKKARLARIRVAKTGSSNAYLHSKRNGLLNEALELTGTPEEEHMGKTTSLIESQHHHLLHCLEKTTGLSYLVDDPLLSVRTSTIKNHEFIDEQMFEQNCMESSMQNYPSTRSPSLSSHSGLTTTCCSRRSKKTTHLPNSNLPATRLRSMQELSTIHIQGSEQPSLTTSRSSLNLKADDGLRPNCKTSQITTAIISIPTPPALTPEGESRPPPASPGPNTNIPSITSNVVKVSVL

[3] = biological target: hKvLQT1/hminK (IKs) channel (Homo sapiens, UniProt P51787); assay: voltage clamp current block, hKvLQT1/hminK channel in stably transfected mammalian cells; assay type: cell-based; details: 0.067 Hz, 4 bpm, unit inferred; read-out: IC50, block of IKs (hKvLQT1/hminK) channels

hKv1.5 channel, sequence (P22460 whole entry): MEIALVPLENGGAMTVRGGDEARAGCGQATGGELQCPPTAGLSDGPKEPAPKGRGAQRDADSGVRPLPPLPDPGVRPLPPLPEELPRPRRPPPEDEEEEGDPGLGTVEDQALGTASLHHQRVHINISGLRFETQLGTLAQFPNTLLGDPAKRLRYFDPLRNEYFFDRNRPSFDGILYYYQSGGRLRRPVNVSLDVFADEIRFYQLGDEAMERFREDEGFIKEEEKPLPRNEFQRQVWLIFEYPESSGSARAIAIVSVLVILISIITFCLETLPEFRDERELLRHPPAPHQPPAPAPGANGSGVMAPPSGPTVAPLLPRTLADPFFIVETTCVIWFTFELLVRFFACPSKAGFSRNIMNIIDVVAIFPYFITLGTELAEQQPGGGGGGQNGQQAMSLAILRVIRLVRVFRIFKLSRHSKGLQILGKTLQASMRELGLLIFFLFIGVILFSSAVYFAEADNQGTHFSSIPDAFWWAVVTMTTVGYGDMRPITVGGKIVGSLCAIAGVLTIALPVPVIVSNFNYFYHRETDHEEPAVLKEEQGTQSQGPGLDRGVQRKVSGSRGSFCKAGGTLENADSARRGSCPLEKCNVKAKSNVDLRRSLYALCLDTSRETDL

## Fc1ccc(C(OCCN2CCN(CCCc3ccccc3)CC2)c2ccc(F)cc2)cc1 [Vanoxerine, vanoxerine]
hKv1.5 channel
  IC50: 2000 nM
hERG (IKr) channel
  IC50: 150 nM
[1]
  IC50: 530 nM
Dog Purkinje fibers
  effect on the duration of the cardiac potential: no effect; also recorded: did not prolong
[2]
  serum concentration: about 100 nM
hHNa ion channel; Hill equation fit
  Hill coefficient, block of hHNa: greater than 2.0
hHNa ion channel; read-out: IC50 estimate, block of hHNa (Hill equation fit)
  IC50: 570 nM
rKv4.3 (Ito) channel
  IC50: 12000 nM
[3]
  IC50: 4200 nM
